In general, IC50 refers to the concentration that gives 50% inhibition.

Experiment [1] has as its system murine erythroleukemia cell line SC9. Briefly: MTS assay (Cell Titer 96 Aqueous One Solution Cell Proliferation Assay). Type of experiment: cell-based. The conditions noted are these: Mus musculus; SC9 cells, 48 hours incubation; unit inferred. How it is done: The novel compounds of the present invention were tested for their ability to inhibit proliferation of the murine erythroleukemia cell line SC9. The MTS assay, also referred to as the Cell Titer 96 Aqueous One Solution Cell Proliferation Assay, is a colorimetric method for determining the number of viable cells in proliferation, cytotoxicity, or chemosensitivity assays. […] Murine erythroleukemia cells (SC-9) were incubated with vehicle or increasing concentrations of compound for 48 hours.
In general terms: Formazan colour is commonly taken as a measure of viable cells.

The target of experiment [2] is T1, histone deacetylase, subtype 1 (HDAC1) (Homo sapiens, UniProt Q13547).
T1 construct: Flag; made in house
Briefly: HDAC1-Flag assay (in vitro deacetylation assay). Type of experiment: biochemical. The conditions noted are these: for inhibition at 10 µM: 10 μM compound, read-out: HDAC1 % INH 10 μM; for inhibition at 100 µM: 100 μM compound, read-out: HDAC1 % INH 100 μM; for IC50: epitope-tagged human HDAC1 complex, substrate at Km, fluorogenic acetylated lysine substrate, read-out: HDAC1 IC50 Ave. How it is done: Novel compounds were tested for their ability to inhibit histone deacetylase, subtype 1 (HDAC1) using an in vitro deacetylation assay. The enzyme source for this assay was an epitope-tagged human HDAC1 complex immuno-purified from stably expressing mammalian cells. The substrate consisted of a commercial product containing an acetylated lysine side chain (BIOMOL Research Laboratories, Inc., Plymouth Meeting, Pa.). Upon deacetylation of the substrate by incubation with the purified HDAC1 complex, a fluorophore is produced that is directly proportional to the level of deacetylation.

T1 sequence (Q13547 whole entry): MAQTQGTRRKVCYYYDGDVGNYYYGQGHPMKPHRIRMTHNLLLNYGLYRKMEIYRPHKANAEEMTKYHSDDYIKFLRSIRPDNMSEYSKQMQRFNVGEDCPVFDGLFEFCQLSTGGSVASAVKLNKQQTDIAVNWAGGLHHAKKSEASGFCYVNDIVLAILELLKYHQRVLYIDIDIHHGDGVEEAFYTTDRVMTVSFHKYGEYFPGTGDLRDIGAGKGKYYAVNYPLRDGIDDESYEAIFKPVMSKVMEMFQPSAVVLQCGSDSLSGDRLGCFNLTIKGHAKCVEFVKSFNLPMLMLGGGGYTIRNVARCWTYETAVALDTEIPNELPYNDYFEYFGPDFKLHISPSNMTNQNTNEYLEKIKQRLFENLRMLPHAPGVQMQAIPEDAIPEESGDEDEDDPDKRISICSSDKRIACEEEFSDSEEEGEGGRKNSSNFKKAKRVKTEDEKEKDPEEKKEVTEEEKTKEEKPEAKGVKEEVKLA

`O=C(CCCCCCC(=O)Nc1ccccc1)NOC(=O)CCCCCCC(=O)Nc1ccccc1` [I, Octanedioic acid phenylamide(7-phenylcarbamoyl-heptanoyloxy)-amide] gave an IC50 in experiment [1] of 785 ± 4.9 nM. Besides, in experiment [2], the inhibition at 10 µM was determined as 45%, the inhibition at 100 µM was 79% and the 50% inhibitory concentration (IC50) was found to be 51900 nM.
Turning to `CC(=O)ONC(=O)CCCCCCC(=O)Nc1ccccc1` [II, Octanedioic acid acetoxy-amide phenylamide], half-maximal inhibition in experiment [1] (IC50) required 246 ± 78.4 nM. Besides, in experiment [2], the inhibition at 10 µM was -17% and the inhibition at 100 µM amounted to 2%.
Regarding `O=C(CCCCCCC(=O)Nc1ccccc1)NOC(=O)c1cccnc1` [III, Octanedioic acid phenylamide(pyridine-3-carbonyloxy)-amide], in experiment [1], the IC50 came out at 252 ± 56.5 nM. Also, in experiment [2], the inhibition at 10 µM was 87%, the inhibition at 100 µM stood at 97% and the IC50 stood at 582 ± 312 nM.
`CCCCc1ccc(C(=O)ONC(=O)CCCCCCC(=O)Nc2ccccc2)cc1` [IV, Octanedioic acid (4-butyl-benzoyloxy)-amide phenylamide] yielded an IC50 in experiment [1] of 1760 nM. Besides, in experiment [2], the inhibition at 10 µM is 10% and the inhibition at 100 µM worked out at 50%.
With `O=C(CCCCCCC(=O)Nc1ccccc1)NOC(=O)c1ccccc1` [IX, Octanedioic acid benzoyloxy-amide phenylamide], the half-maximal inhibitory concentration (IC50) in experiment [1] stood at 1200 nM. Moreover, in experiment [2], the inhibition at 10 µM is 20% and the inhibition at 100 µM worked out at 60%.
Regarding `O=C(CCCCCCC(=O)Nc1ccccc1)NOC(=O)CCc1ccccc1` [V, Octanedioic acid phenylamide(3-phenyl-propionyloxy)-amide], it took 491 ± 327 nM to reach half-maximal inhibition in experiment [1] (IC50). In addition, in experiment [2], the inhibition at 10 µM stood at 64%, the inhibition at 100 µM was determined as 90% and the IC50 was 1680 ± 1200 nM.
With `O=C(CCCCCCC(=O)Nc1ccccc1)NOC(=O)CCCc1ccccc1` [VI, Octanedioic acid phenylamide(4-phenyl-butyryloxy)-amide], inhibition in experiment [1] was half-maximal at 1540 nM (IC50). For the same compound, in experiment [2], the inhibition at 10 µM is 27% and the inhibition at 100 µM amounted to 62%.
The matching figures for `O=C(CCCCCCC(=O)Nc1ccccc1)NOC(=O)/C=C/c1ccccc1` [VII, Octanedioic acid (3-phenyl-acryloyloxy)-amide phenylamide]: 648 nM, 26% and 45%.
The matching figures for `O=C(CCCCCCC(=O)Nc1ccccc1)NOC(=O)c1ccc(-c2ccccc2)cc1` [VIII, Octanedioic acid (biphenyl-4-carbonyloxy)-amide phenylamide]: 1380 nM, 94% and 99%.
For the compound `O=C(CCCCCCC(=O)Nc1ccccc1)NOC(=O)c1ccc2ccccc2c1` [X, Octanedioic acid (naphthalene-2-carbonyloxy)-amide phenylamide], the IC50 in experiment [1] amounted to 1790 nM. Moreover, in experiment [2], the inhibition at 10 µM worked out at 9% and the inhibition at 100 µM was found to be 22%.
The matching figures for `O=C(CCCCCCC(=O)Nc1ccccc1)NOC(=O)c1cccc2ccccc12` [XI, Octanedioic acid (naphthalene-1-carbonyloxy)-amide phenylamide]: 5220 nM, 5% and 5%.
In the same order, the values of `COc1cccc(C(=O)ONC(=O)CCCCCCC(=O)Nc2ccccc2)c1` [XII, Octanedioic acid (3-methoxy-benzoyloxy)-amide phenylamide] are 494 nM, 20% and 43%.
The matching figures for `COc1ccc(C(=O)ONC(=O)CCCCCCC(=O)Nc2ccccc2)cc1` [XIII, Octanedioic acid (4-methoxy-benzoyloxy)-amide phenylamide]: 748 nM, 21% and 65%.
As for `Cc1ccc(C(=O)ONC(=O)CCCCCCC(=O)Nc2ccccc2)cc1` [XIV, Octanedioic acid (4-methyl-benzoyloxy)-amide phenylamide], the IC50 in experiment [1] came to 862 nM. In experiment [2], the inhibition at 10 µM worked out at 38% and the inhibition at 100 µM turned out to be 74%.
The matching figures for `CC(C)(C)OC(=O)N[C@@H](Cc1ccccc1)C(=O)ONC(=O)CCCCCCC(=O)Nc1ccccc1` [XIX, [1-Benzyl-2-oxo-2-(7-phenylcarbamoyl-heptanoylaminooxy)-ethyl]-carbamic acid tert-butyl ester]: 446 nM, 87% and 96%.
`COc1ccccc1C(=O)ONC(=O)CCCCCCC(=O)Nc1ccccc1` [XV, Octanedioic acid (2-methoxy-benzoyloxy)-amide phenylamide]: the IC50 in experiment [1] turned out to be 592 nM. In experiment [2], the inhibition at 10 µM was 23% and the inhibition at 100 µM was 48%.
In the same order, the values of `O=C(CCCCCCC(=O)Nc1ccccc1)NOC(=O)c1ccc(Cl)cc1` [XVI, Octanedioic acid (4-chloro-benzoyloxy)-amide phenylamide] are 434 nM, 24% and 36%.
The matching figures for `O=C(CCCCCCC(=O)Nc1ccccc1)NOC(=O)[C@H](Cc1ccccc1)NC(=O)OCc1ccccc1` [XVII, [1-Benzyl-2-oxo-2-(7-phenylcarbamoyl-heptanoylaminooxy)-ethyl]-carbamic acid benzyl ester]: 753 nM, 94% and 99%.
Turning to `O=C(CCCCCCC(=O)Nc1ccccc1)NOC(=O)[C@@H](Cc1ccccc1)NC(=O)OCc1ccccc1` [XVIII, [1-Benzyl-2-oxo-2-(7-phenylcarbamoyl-heptanoylaminooxy)-ethyl]-carbamic acid benzyl ester], the IC50 in experiment [1] is 443 nM. Further, in experiment [2], the inhibition at 10 µM amounted to 78% and the inhibition at 100 µM is 93%.

These data come from US8227636B2, “Histone deacetylase inhibitor prodrugs” (Merck HDAC Research, LLC, priority 2004, dated 2012).
